Measured values: PMC4028696, “Development of a screen to identify selective small molecules active against patient-derived metastatic and chemoresistant breast cancer cells” (Breast Cancer Research : BCR, 2013)

Tests used:
[1] = test system: cleaved caspase-3, caspase-8, cleaved caspase-9, and PARP; experiment: Western blot for caspase and PARP cleavage; assay type: cell-based, human; conditions: 30 μM, 48 hours, cell lines, hTERT-HMEC and PE cells
Procedure: Cells were lysed in cold radioimmunoprecipitation assay buffer (50 mM Tris HCl, 150 mM NaCl, 0.1% sodium dodecyl sulfate (SDS), 0.5% sodium deoxycholate, 1% Triton X-100, pH = 8.0) supplemented with protease inhibitor cocktail (Sigma), phosphatase inhibitor cocktail 2 (Sigma) and 1 mM dithiothreitol (DTT) (Sigma). The lysate was sonicated for 30 seconds using a 450 Sonifier (Branson Ultrasonics, Danbury, CT, USA) and was centrifuged at 14,000 RPM for five minutes at 4°C. The protein concentration was determined using the BCA protein assay kit (Peirce, Rockford, IL, USA) and the samples were boiled for five minutes with 4× SDS Laemmli buffer. Equal amounts of protein were resolved on SDS polyacrylamide gels and transferred to an Immobilon-FL PVDF membrane (EMD Millipore). Blots were blocked in Odyssey Blocking Buffer (LI-COR, Lincoln, NE, USA) for one hour at room temperature, stained with primary antibodies overnight at 4°C, washed, and stained with IR800CW or IR680 anti-mouse or rabbit secondary antibodies (LI-COR) for one hour at room temperature. Blots were imaged with the Odyssey Infrared Imaging System (LI-COR). […]

[2] = Chemical screen, difference in ATP viability between normal and tumor cells; assay type: cell-based; conditions: human, four days, duplicate, read-out: difference in viability between the hTERT-HMEC and PE1007070 cells (selectivity)
Procedure: The hTERT-HMEC and PE1007070 cells were seeded in white 96-well plates (Costar) in 100 μL of modified M87 media at varying densities to achieve 80% to 90% confluency at the end of the assay. The 10 mM DMSO stock solutions from the 560-compound University of Utah Department of Chemistry library were diluted with modified M87 media utilizing an EP Motion 5075 (Eppendorf North America) liquid handler. In addition, corresponding DMSO vehicle and doxorubicin controls were prepared in modified M87 media. After the cells were cultured for 24 hours, 80 μL of media was aspirated from each well. […] After four days of treatment, viability was determined utilizing the ATPlite 1step assay system (Perkin Elmer) according to the manufacturer's instructions. Luminescence measurements were acquired utilizing a Perkin Elmer 2104 EnVision plate reader. Raw luminescence values were normalized to the DMSO vehicle control wells for each plate and cell type. […]
Reagent/ compound dispensing system Eppendorf EP Motion 5075 (Compound dilution) Detection instrument and software Luminescence was detected with a Perkin Elmer Envision 2104 Assay validation/QC 20 µM Doxorubicin was used as a positive control and used to […]
Additional comments Selectivity of compounds was determined by subtracting the average viability of the PE1007070 from the hTERT-HMEC cells […]

[3] = test system: caspase-3/7, -8 or -9; experiment: Caspase-Glo caspase activity assay; assay type: cell-based, human; conditions: 30 μM, 24 or 48 hours, normalized to ATP viability
Procedure: Adherent cells were seeded in two identical white 96-well plates (Costar) in 100 μL of their respective media at varying densities to achieve 80% to 90% confluency at the end of the assay. After 24 hours, the media were aspirated and the cells were treated with 30 μM C-6 or a matched 0.03% (v/v) DMSO vehicle control in the corresponding media containing 2% FBS. For suspension cultures, cells were first seeded in 75 μL of media. At the start of treatment, 25 μL of a 4× concentration of C-6 or a matched (v/v) DMSO vehicle control was added to each well such that the final volume in each well was 100 μL and the final concentration of C-6 was 30 μM. For the caspase activity assays, additional wells were treated with 1 μM staurosporine. […] For the Caspase-Glo assay, cell viability was determined for the additional 96-well plate utilizing the ATPlite 1step assay system (Perkin Elmer) according to the manufacturer's instructions. For the AAF-Glo assay, the total protein in each well of the additional plate was measured using the BCA protein assay kit (Peirce, Rockford, IL, USA). Luminescence measurements were acquired utilizing a Perkin Elmer 2104 EnVision plate reader. Raw luminescence values for each assay were normalized to the DMSO vehicle control wells. […]

## COc1cc(OC)cc(C(C)c2ccc(NC(=O)OC(C)(C)C)cc2)c1 (stereo not drawn) [C-6]
[1]
  cleavage of caspase-3, -8, -9, or PARP: did not induce cleavage
[2]
  viability difference, normal minus tumor cells (selectivity) at 4 days, 20 µM: 62%
[3]
  caspase activity: did not induce significant caspase activity
